From patent publication US20180250306A1, “ALDEHYDE CONJUGATES AND USES THEREOF” (ALDEYRA THERAPEUTICS, INC., priority 2015, published 2018)

Columns and labels:
[1] = hamster cheek pouch radiation; cited from earlier work
circulating cytokines = assay: LPS model of inflammation in the mouse, ELISA of circulating cytokines; assay type: in vivo, mice
Experimental: Male C57BI/6 mice are dosed with disclosed compounds 30 minutes before they are exposed to LPS (20 mg/kg). Two hours after the LPS exposure, blood is collected from the mice and an ELISA is conducted to determine the amount of circulating cytokines. Treatment with disclosed compounds leads to reduction in proinflammatory cytokines, such as IL-5 and IL-1β, IL-17, and TNF. Also, treatment with disclosed compounds results in elevated anti-inflammatory cytokines, such as IL-10.

CC(C)(O)c1nc2ccc(Cl)cc2cc1N [NS2, 2-(3-amino-6-chloroquinolin-2-yl)propan-2-ol]
overall fibrosis at the site of injury over time [1]: decrease
rate of recovery from injury [1]: significant increase
pro-inflammatory cytokines (circulating cytokines; such as IL-5, IL-1β, IL-17, TNF): downregulate
anti-inflammatory cytokines (circulating cytokines; such as IL-10): upregulate
